Experimental data reported in patent US7348425B2, “Inhibitors of HCV replication” (Bristol-Myers Squibb Company, priority 2004, dated 2008).

Tests used:
[1] = molecular target: T1, HCV NS5B RdRp genotype 1b (Hepatitis C virus genotype 1b, UniProt Q9WMX2); assay: Modified HCV NS5B RdRp enzyme assay (with preincubation); type: biochemical
T1 construct: The protein was expressed with an 18 amino acid C-terminal truncation to enhance the solubility; made in house; host or cells: E. coli BL21 (DE3), pET21a
Summary of the method: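 C-terminally truncated (Δ18) genotype 1b NS5B from E. coli was preincubated (14 nM) with compound, then reaction started with polyA template (0.2 nM), ³H-UTP (0.29 μM) and dT12 primer (20 nM) precaptured on SPA beads. Reaction ran 4 h at 30 °C in pH 7.5 Hepes buffer with 2% DMSO. IC50 came from seven concentrations.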

[2] = system: HCV replicon; assay: HCV replicon FRET assay; type: cell-based; conditions: Hepatitis C virus; FRET assay; read-out: EC50
Summary of the method: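 Replicon cells (± Renilla luciferase reporter) incubated with titrated compound at 37 °C; NS3 protease activity read by FRET peptide cleavage (20 uM EDANS/DABCYL substrate, 340/490 nm kinetic) or luciferase.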

[3] = modified method (with preincubation)

T1 sequence (Q9WMX2 2420-2992): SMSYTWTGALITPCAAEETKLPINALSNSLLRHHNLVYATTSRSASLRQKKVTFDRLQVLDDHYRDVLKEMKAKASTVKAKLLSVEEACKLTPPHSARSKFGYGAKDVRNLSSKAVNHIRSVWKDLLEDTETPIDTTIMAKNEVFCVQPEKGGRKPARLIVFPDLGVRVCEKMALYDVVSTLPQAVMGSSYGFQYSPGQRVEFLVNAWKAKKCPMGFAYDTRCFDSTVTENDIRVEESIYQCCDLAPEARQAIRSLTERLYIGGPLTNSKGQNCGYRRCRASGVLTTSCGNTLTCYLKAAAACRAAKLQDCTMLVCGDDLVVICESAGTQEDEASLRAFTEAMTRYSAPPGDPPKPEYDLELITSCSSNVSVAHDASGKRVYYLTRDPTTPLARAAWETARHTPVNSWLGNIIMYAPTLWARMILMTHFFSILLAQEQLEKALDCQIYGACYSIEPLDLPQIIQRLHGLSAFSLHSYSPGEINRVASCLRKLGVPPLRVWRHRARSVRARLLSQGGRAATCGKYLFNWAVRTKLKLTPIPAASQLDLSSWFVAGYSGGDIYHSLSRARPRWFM

## COC(=O)c1ccc2c(C3CCCCC3)c3n(c2c1)CC(C(=O)N1CCOCC1)=C(C)c1ccccc1-3
[1]; [3]
  IC50: > 1000 nM
[2]
  EC50: 1000 to 10000 nM

## COc1ccc2c(c1)C=C(C(=O)N1CCOC(CN(C)C)C1)Cn1c-2c(C2CCCCC2)c2ccc(C(=O)NS(=O)(=O)N(C)C)cc21 (stereo not shown)
[1]; preincubation protocol
  IC50: 10 to 1000 nM
[2]
  EC50: 50 to 1000 nM

## COc1ccc2c(c1)C=C(C(=O)N1CC(C)NC(C)C1)Cn1c-2c(C2CCCCC2)c2ccc(C(=O)NS(=O)(=O)N(C)C)cc21 (stereo not shown)
[1]; preincubation protocol
  IC50: 10 to 1000 nM
[2]
  EC50: 50 to 1000 nM

## C[C@@H]1CN(C(=O)C2=Cc3cc(F)ccc3-c3c(C4CCCCC4)c4ccc(C(=O)NS(=O)(=O)N(C)C)cc4n3C2)C[C@H](C)N1
[1]; preincubation protocol
  IC50: 10 to 1000 nM
[2]
  EC50: 50 to 1000 nM

## CN(CCO)C(=O)C1=Cc2ccccc2-c2c(C3CCCCC3)c3ccc(C(=O)NS(=O)(=O)N(C)C)cc3n2C1
[1]; [3]
  IC50: 20 to 1000 nM
[2]
  EC50: 10 to 1000 nM

## CCN(CC)C(=O)C1=Cc2ccccc2-c2c(C3CCCCC3)c3ccc(C(=O)NS(=O)(=O)N(C)C)cc3n2C1
[1]; [3]
  IC50: 20 to 1000 nM
[2]
  EC50: 10 to 1000 nM

## COC(=O)c1ccc2c(C3CCCCC3)c3n(c2c1)CC(C#N)=Cc1ccccc1-3
[1]; [3]
  IC50: > 1000 nM
[2]
  EC50: 1000 to 10000 nM

## CN(C)S(=O)(=O)NC(=O)c1ccc2c(C3CCCCC3)c3n(c2c1)C[C@H](C(=O)N1CCOCC1)Cc1ccccc1-3
[1]; [3]
  IC50: 20 to 1000 nM
[2]
  EC50: 10 to 1000 nM

## O=C1Cn2c(c(C3CCCCC3)c3ccc(C(=O)NS(=O)(=O)N4CCCC4)cc32)-c2ccccc2N1
[1]; [3]
  IC50: 20 to 1000 nM
[2]
  EC50: 10 to 1000 nM

## CN(C)S(=O)(=O)NC(=O)c1ccc2c(C3CCCCC3)c3n(c2c1)CCCNc1ccccc1-3
[1]; preincubation protocol
  IC50: 10 to 1000 nM
[2]
  EC50: 50 to 1000 nM

## O=C(O)c1ccc2c(C3CCCCC3)c3c4ccccc4[nH]c(=O)n3c2c1
[1]; [3]
  IC50: > 1000 nM
[2]
  EC50: 10 to 1000 nM

## CN(C)S(=O)(=O)NC(=O)c1ccc2c(C3CCCCC3)c3n(c2c1)CC(C(=O)N1CCOCC1)Cc1cccnc1-3 (stereo not shown)
[1]; [3]
  IC50: 20 to 1000 nM
[2]
  EC50: 10 to 1000 nM

## CNS(=O)(=O)NC(=O)c1ccc2c(C3CCCCC3)c3n(c2c1)CC(C(=O)N1C[C@@H](C)O[C@@H](C)C1)Cc1ccccc1-3 (stereo partly shown)
[1]; preincubation protocol
  IC50: 10 to 1000 nM
[2]
  EC50: 50 to 1000 nM

## COc1ccc2c(c1)C=C(C(=O)N1CCC[C@H](O)C1)Cn1c-2c(C2CCCCC2)c2ccc(C(=O)NS(=O)(=O)N(C)C)cc21
[1]; preincubation protocol
  IC50: 10 to 1000 nM
[2]
  EC50: 50 to 1000 nM

## O=C(O)c1ccc2c(C3CCCCC3)c3c4ccccc4ncn3c2c1
[1]; [3]
  IC50: > 1000 nM
[2]
  EC50: > 10000 nM

## O=C(O)c1ccc2c(C3CCCCC3)c3n(c2c1)CC(O)CNc1ccccc1-3 (stereo not shown)
[1]; [3]
  IC50: 20 to 1000 nM
[2]
  EC50: 1000 to 10000 nM

## COC(=O)c1ccc2c(C3CCCCC3)c3n(c2c1)CC(C(=O)O)=Cc1ccc(Cl)cc1-3
[1]; [3]
  IC50: > 1000 nM
[2]
  EC50: 1000 to 10000 nM

## CCOC(=O)c1nc(-c2ccc(NC(=O)C3(NC(=O)c4ccc5c(C6CCCCC6)c6n(c5c4)CCCc4ccccc4-6)CCCC3)cc2)cs1
[1]; [3]
  IC50: > 1000 nM
[2]
  EC50: 10 to 1000 nM

## O=C(O)c1ccc2c(C3CCCCC3)c3n(c2c1)CC(CO)Cc1ccccc1-3 (stereo not shown)
[1]; [3]
  IC50: 20 to 1000 nM
[2]
  EC50: 1000 to 10000 nM

## COC(=O)c1ccc2c(C3CCCCC3)c3n(c2c1)CC(C(=O)N1C[C@@H](C)O[C@@H](C)C1)=Cc1cc(OC)ncc1-3
[1]; preincubation protocol
  IC50: > 1000 nM
[2]
  EC50: > 1000 nM

## CC(C)(C)OC(=O)N1CCCCn2c(c(C3CCCCC3)c3ccc(C(=O)O)cc32)-c2cnccc21
[1]; [3]
  IC50: > 1000 nM
[2]
  EC50: > 10000 nM

## CN(C)C(=O)c1ccc2c(C3CCCCC3)c3n(c2c1)CC(C(=O)N1CCOCC1)=Cc1ccccc1-3
[1]; [3]
  IC50: 20 to 1000 nM
[2]
  EC50: 1000 to 10000 nM

## O=C1Cn2c(c(C3CCCCC3)c3ccc(C(=O)NS(=O)(=O)N4CCN(c5ccccc5)CC4)cc32)-c2ccccc2N1
[1]; [3]
  IC50: 20 to 1000 nM
[2]
  EC50: 1000 to 10000 nM

## O=C(O)/C=C/c1ccc(NC(=O)C2(NC(=O)c3ccc4c(C5CCCCC5)c5n(c4c3)C[C@@H](O)[C@@H](O)c3ncccc3-5)CCCC2)cc1
[1]; [3]
  IC50: 20 to 1000 nM
[2]
  EC50: 10 to 1000 nM

## COC(=O)c1ccc2c(C3CCCCC3)c3n(c2c1)CC(C(=O)N(C)C)=Cc1ccccc1-3
[1]; [3]
  IC50: > 1000 nM
[2]
  EC50: 1000 to 10000 nM

## O=C1Cn2c(c(C3CCCCC3)c3ccc(C(=O)NC4(C(=O)Nc5ncc(-c6ccc(C(=O)O)cc6)s5)CCCC4)cc32)-c2ccccc2N1
[1]; [3]
  IC50: 20 to 1000 nM
[2]
  EC50: 10 to 1000 nM
